Source: patent US10548911B2, “Small molecule anti-scarring agents” (UNIVERSITY OF ROCHESTER, priority 2014, dated 2020)
“Also recorded” adds a separate entry of the source.

How the values were obtained:
[1] = test system: primary human lung fibroblasts; experiment: TGFβ-induced myofibroblast formation, αSMA Western blot and cell images, primary human lung fibroblasts; type: cell-based
Experimental: Human lung fibroblasts were treated with various concentrations of 10-hydroxycamptothecin (HCPT) (50 nM or 500 nM) and induced to form scar-forming myofibroblasts by treating with TGFβ.

[2] = test system: primary mouse lung fibroblasts; experiment: TGFβ-induced myofibroblast formation, αSMA Western blot, primary mouse lung fibroblasts; type: cell-based; details: HCPT 50 nM to 500 nM
Experimental: Salinomycin and alexidine served as positive controls for anti-fibrotic activity. Western blots were performed using cell lysates from the fibroblasts exposed to TGFβ to assess TGFβ-dependent αSMA expression.

[3] = test system: primary human orbital fibroblasts; experiment: TGFβ-induced myofibroblast formation, αSMA Western blot, primary human orbital fibroblasts; details: HCPT 50 nM to 500 nM, TGFβ
Experimental: Total protein was isolated from 0.5-2×10^6 cells and lysed in 60 mM Tris, pH 6.8, 2% SDS containing 1× protease inhibitor cocktail (Sigma, St. Louis, Mo.). The lysates were passed through a 26 gauge needle 5-6 times to shear genomic DNA. Protein concentrations were determined using the detergent compatible protein assay (BioRad). Total protein (1-10 ug per lane) was subjected to SDS-PAGE. Protein gels were transferred to PVDF membrane (Millipore) and probed with antibodies as specified. Western blot band intensities were quantified using ImageLab software (BioRad). Protein expression was normalized to β-tubulin levels.
Primary human orbital fibroblasts, primary human lung fibroblasts, and primary mouse lung fibroblasts were treated with TGFβ and HCPT (50 nM, 500 nM, and 5000 nM) or SNC (500 nM) or AXD (0.5 μM, 5 μM, and 50 μM) to assess the ability of HCPT to inhibit myofibroblast formation. […] Western blots were performed using cell lysates from the fibroblasts exposed to TGFβ to assess TGFβ-dependent αSMA expression.
Primary human orbital fibroblasts were treated with TGFβ and either 6-formylindolo(3,2-b)carbazole (“FICZ”, 1 μM), Omeprazole (“Ome”, 2 μM, 10 μM, 50 μM, 100 μM, 250 μM, 500 μM), or Flutamide (“Flut”, 2 μM, 10 μM, 50 μM, 100 μM, 250 μM, 500 μM) to assess their ability to inhibit myofibroblast formation. […] Western blots were performed using cell lysates from the fibroblasts exposed to TGFβ to assess TGFβ-dependent αSMA expression. Densitometry analyses of the Western blots were also performed.

CC[C@@]1(O)C(=O)OCc2c1cc1n(c2=O)Cc2cc3cc(O)ccc3nc2-1 [HCPT, 10-hydroxycamptothecin]
overt toxicity (cell images) ([1]; HCPT 50 nM or 500 nM): without being overtly toxic; also recorded: with out being overtly toxic
formation of myofibroblasts (cell images) ([1]; HCPT 50 nM or 500 nM, TGFβ): not in samples treated with HCPT or SNC; also recorded: not in samples with HCPT or salinomycin (SNC)
myofibroblast formation (relative αSMA expression) ([1]; HCPT 50 nM to 500 nM, TGFβ): potently blocks myofibroblast formation; also recorded: dose-dependent inhibition of αSMA
myofibroblast formation (relative αSMA expression) [2]: less effective in blocking myofibroblast formation; also recorded: potently blocks myofibroblast formation
myofibroblast formation (relative αSMA expression) [3]: potently blocks myofibroblast formation; also recorded: dose-dependent inhibition of αSMA
